Experimental data published in US10251854B2, “S-(carboxymethyl)-cysteine pharmaceutical compound and preparation method and use thereof” (Guangzhou Baiyunshan Pharmaceutical Holdings Co., Ltd. …, priority 2013, dated 2019).
Where a name gives a salt, the structure may show the parent alone. Read-outs that look alike come from different tables or passages of the source.

Columns and labels:
[1] = tested on: rat COPD model; assay: Rat COPD model: inflammation indexes (TNF-α, IL-8, IL-6); format: in vivo; settings: x ± SD
Protocol: (§1) 1.1 Preparation of Rat COPD Models
(§2) A method of establishing a rat COPD model by fumigation plus endotoxin lipopolysaccharide (LPS) endotracheal drop, which is commonly used at home and abroad at present was adopted. The period is 3 months (90 days). Specific method: on the 1st, the 15th, the 29th, the 43rd, the 57th, the 71st and the 85th days of the test, the rats were anesthetized with ethylether, the roots of tongues of the rats were pulled out, and LPS (200 ug/200 ul) was dripped through tracheas by bend gavage needle heads. The rats of the normal group were dripped with physiological saline of equal amount by the same method, and weren't fumigated. The rats of the other five groups were fumigated in a self-made fumigation bin. One side of the fumigation bin was externally connected with a negative pressure pump, and the top thereof was connected with a port for inserting cigarettes. With the negative press pump turned on, the cigarettes were lit, and the smoke of the cigarettes was absorbed into the fumigation bin. In order to prevent the animals from death caused by anoxia, 12 cigarettes were lit every time, and the lid of the fumigation bin was opened 20 min after fumigation for letting in fresh air. The operation was performed 1 h/3 times/day, with the LPS (200 ug/200 ul) being dripped through the tracheas by bend gavage needle heads.
(§3) 1.2 Pharmacological Intervention
(§4) The test was 90 days long. The pharmacological intervention was started from the 15th day, the rats of the positive group were perfused with carbocisteine, the rats of the low, medium and high test groups were perfused with different doses of test medicines, and the rats of the model group and the normal group were perfused with physiological saline of equal amount.
(§5) 1.3 Indexes Determination
(§6) Blood was taken from the orbit of each rat on the second day after the test was over, serum was separated, a complete stomach was cut and washed, lung tissue was preserved, the stomach and the right upper lung were left for pathobiology test, after the rest of the lung was subjected to lung tissue homogenate, the indexes of oxidization and antioxidation, the contents of lipid peroxide (LPO), malondialdehyde (MDA) and reduced glutathione (GSH), the activity of superoxide dismutase (SOD) and the concentration of inflammatory medium TNF-α, IL-8 and IL-6 were detected.

[2] = pH value of 1% solution/suspension by pH meter; format: physicochemical; settings: n=6
Excerpt: (§7) In a preferred embodiment of the present invention, the S-(carboxymethyl)-L-cysteine ammonium salt monohydrate crystalline compound is a soluble double salt formed by the acidity of the carboxyl thereof and the alkalinity of the aqueous ammonia. […] In addition, the medicine, after being absorbed by the body, can be hydrolysed into S-(carboxymethyl)-L-cysteine and ammonium chloride with the effect of gastric acid, which can not only reduce the irritation of S-(carboxymethyl)-L-cysteine to the gastrointestinal tract, but also neutralize the excessive gastric acid. After the S-(carboxymethyl)-L-cysteine ammonium salt monohydrate crystal is hydrolysed, the S-(carboxymethyl)-L-cysteine in the body continues giving play to pharmacological effects thereof. At the same time, the ammonium chloride obtained from hydrolysis has chemical irritation to the mucous membrane, which can reflectively increase the amount of sputum to easily remove the sputum, and is conducive to removing a small amount of sputum which is difficult to be coughed out, thereby enhancing the sputum-resolving effect of the S-(carboxymethyl)-L-cysteine, and improving the curative effect. The S-(carboxymethyl)-L-cysteine ammonium salt is safe, has small side effect, and can be used for patients suffering from chronic obstructive pulmonary disease and the like to take for a long time.

[3] = Water solubility; format: physicochemical
Excerpt: as §7

[4] = Solubility in several solvents (25° C.); format: physicochemical
[5] = Storage at room temperature (character, moisture absorption); format: physicochemical; settings: stored for a period of time at room temperature
Excerpt: The S-(carboxymethyl)-L-cysteine ammonium salt monohydrate crystals of the present invention have a relatively uniform particle size distribution.

[6] = tested on: rat COPD model; assay: Rat COPD model: antioxidation indexes (GSH, SOD); format: in vivo; settings: x ± SD
Protocol: as §1, §2, §3, §4, §5, §6

[7] = tested on: rat COPD model; assay: Rat COPD model: oxidization indexes (LPO, MDA); format: in vivo; settings: x ± SD
Protocol: as §1, §2, §3, §4, §5, §6

[8] = tested on: chronic obstructive pulmonary disease; settings: 1500 mg/d, 12 months; cited from earlier work
[9] = tested on: patients suffering from COPD; settings: 142 patients; 1500 mg/d, 12 months; cited from earlier work
[10] = tested on: gastric mucosa of rats; assay: Rat COPD model: pathological changes of stomachs; format: in vivo; settings: perfused from the 15th day of the 90 day test
Protocol: A method of establishing a rat COPD model by fumigation plus endotoxin lipopolysaccharide (LPS) endotracheal drop, which is commonly used at home and abroad at present was adopted. The period is 3 months (90 days). Specific method: on the 1st, the 15th, the 29th, the 43rd, the 57th, the 71st and the 85th days of the test, the rats were anesthetized with ethylether, the roots of tongues of the rats were pulled out, and LPS (200 ug/200 ul) was dripped through tracheas by bend gavage needle heads. The rats of the normal group were dripped with physiological saline of equal amount by the same method, and weren't fumigated. The rats of the other five groups were fumigated in a self-made fumigation bin. […]
as §6

[11] = tested on: patients suffering from COPD; settings: 1500 mg/d, 12 months; cited from earlier work

N[C@@H](CSCC(=O)O)C(=O)O [L-ammonium, S-(carboxymethyl)-L-cysteine ammonium salt monohydrate]
IL-6 Lung tissue ([1]; high dose group): 9.28 ± 4.49 pg/mL
IL-6 Serum ([1]; high dose group): 5.83 ± 1.51 pg/mL
IL-8 Lung tissue ([1]; high dose group): 8.17 ± 1.06 pg/mL
IL-8 Serum ([1]; high dose group): 5.36 ± 1.51 pg/mL
TNF-α Lung tissue ([1]; high dose group): 15.15 ± 4.20 pg/mL
TNF-α Serum ([1]; high dose group): 13.02 ± 5.32 pg/mL
IL-6 Lung tissue ([1]; low dose group): 14.72 ± 5.51 pg/mL
IL-6 Serum ([1]; low dose group): 7.02 ± 3.30 pg/mL
IL-8 Lung tissue ([1]; low dose group): 9.97 ± 1.24 pg/mL
IL-8 Serum ([1]; low dose group): 7.90 ± 2.16 pg/mL
TNF-α Lung tissue ([1]; low dose group): 20.60 ± 9.60 pg/mL
TNF-α Serum ([1]; low dose group): 17.98 ± 3.94 pg/mL
IL-6 Lung tissue ([1]; medium dose group): 12.91 ± 2.47 pg/mL
IL-6 Serum ([1]; medium dose group): 6.24 ± 2.12 pg/mL
IL-8 Lung tissue ([1]; medium dose group): 8.66 ± 2.54 pg/mL
IL-8 Serum ([1]; medium dose group): 6.30 ± 2.17 pg/mL
TNF-α Lung tissue ([1]; medium dose group): 19.98 ± 8.78 pg/mL
TNF-α Serum ([1]; medium dose group): 15.11 ± 4.38 pg/mL
pH value ([2]; 1% compound, pH meter): 6.60±0.36
water solubility ([3]; listed as S-(carboxymethyl)-L-cysteine ammonium salt monohydrate crystal, ammonium salt monohydrate): extremely easily soluble in water
Solubility ([4]; Absolute ethyl alcohol): Very slightly soluble
Solubility ([4]; Acetone): Very slightly soluble
Solubility ([4]; Acetonitrile): Very slightly soluble
Solubility ([4]; Isopropanol): Very slightly soluble
Solubility ([4]; Methanol): Very slightly soluble
Solubility ([4]; N,N-Dimethylformamide): Very slightly soluble
absorption of moisture [5]: insusceptible to absorption of moisture
character changes after storage [5]: no obvious character changes
GSH Lung tissue ([6]; high dose group): 141.69 ± 28.40 µmol/L
GSH Serum ([6]; high dose group): 232.93 ± 40.49 µmol/L
SOD Lung tissue ([6]; high dose group): 77.56 ± 18.09 U/mL
SOD Serum ([6]; high dose group): 140.69 ± 32.13 U/mL
GSH Lung tissue ([6]; low dose group): 113.59 ± 24.32 µmol/L
GSH Serum ([6]; low dose group): 140.64 ± 19.66 µmol/L
SOD Lung tissue ([6]; low dose group): 60.38 ± 16.04 U/mL
SOD Serum ([6]; low dose group): 90.80 ± 15.13 U/mL
GSH Lung tissue ([6]; medium dose group): 124.19 ± 30.78 µmol/L
GSH Serum ([6]; medium dose group): 175.61 ± 31.11 µmol/L
SOD Lung tissue ([6]; medium dose group): 70.71 ± 11.16 U/mL
SOD Serum ([6]; medium dose group): 102.98 ± 23.26 U/mL
LPO Lung tissue ([7]; high dose group): 13.51 ± 1.66 nmol/mL
LPO Serum ([7]; high dose group): 3.22 ± 0.85 nmol/mL
MDA Lung tissue ([7]; high dose group): 3.68 ± 0.87 µmol/mL
MDA Serum ([7]; high dose group): 5.88 ± 1.26 µmol/mL
LPO Lung tissue ([7]; low dose group): 16.24 ± 2.32 nmol/mL
LPO Serum ([7]; low dose group): 4.75 ± 1.30 nmol/mL
MDA Lung tissue ([7]; low dose group): 4.03 ± 1.27 µmol/mL
MDA Serum ([7]; low dose group): 7.28 ± 1.33 µmol/mL
LPO Lung tissue ([7]; medium dose group): 15.58 ± 2.73 nmol/mL
LPO Serum ([7]; medium dose group): 3.77 ± 1.15 nmol/mL
MDA Lung tissue ([7]; medium dose group): 3.88 ± 0.59 µmol/mL
MDA Serum ([7]; medium dose group): 6.20 ± 3.23 µmol/mL

N[C@@H](CSCC(=O)O)C(=O)O [carbocisteine, S-(carboxymethyl)-L-cysteine, reference compound]
IL-6 Lung tissue ([1]; positive group): 14.24 ± 6.26 pg/mL
IL-6 Serum ([1]; positive group): 8.13 ± 2.87 pg/mL
IL-8 Lung tissue ([1]; positive group): 10.91 ± 2.30 pg/mL
IL-8 Serum ([1]; positive group): 7.87 ± 3.08 pg/mL
TNF-α Lung tissue ([1]; positive group): 25.17 ± 8.28 pg/mL
TNF-α Serum ([1]; positive group): 18.37 ± 4.55 pg/mL
pH ([2]; 1% suspension per Chinese Pharmacopoeia (2010 Edition)): 2.93±0.20
annual acute morbidity per person reduced by [8]: 24.5%
prevention of acute COPD [9]: prevented from acute COPD
water solubility [3]: poorer water solubility
GSH Lung tissue ([6]; positive group): 107.26 ± 23.52 µmol/L
GSH Serum ([6]; positive group): 132.31 ± 24.04 µmol/L
SOD Lung tissue ([6]; positive group): 62.28 ± 15.12 U/mL
SOD Serum ([6]; positive group): 96.16 ± 23.03 U/mL
Pathological changes of stomachs / irritation to the gastrointestinal tract [10]: mild irritations such as mild hyperaemia and edema, and larger inflammatory cell infiltration
Pathological changes of stomachs / irritation to the gastrointestinal tract ([10]; listed as positive group): mild edema and hyperemia and serious inflammatory cell infiltration in the gastric mucosa layers
frequency of catching colds and acute exacerbation of COPD [11]: the frequency of catching colds is reduced and the acute exacerbation of COPD is relieved
LPO Lung tissue ([7]; positive group): 17.44 ± 2.43 nmol/mL
LPO Serum ([7]; positive group): 5.12 ± 1.09 nmol/mL
MDA Lung tissue ([7]; positive group): 4.76 ± 0.70 µmol/mL
MDA Serum ([7]; positive group): 7.34 ± 2.19 µmol/mL
